Data set [1] is described as follows: DPPH radical scavenging capacity of food powder. Type of data set: biochemical. The following applies: positive control at the same concentrations as polyphenols. On the technique in general: The DPPH test is a chemical assay of radical scavenging.
Description: The powder was dissolved in water and the antioxidant capacity of the solution was determined by estimating the DPPH Radical scavenging capacity of solution as polyphenol equivalent (estimated by Folin-Ciocalteau reagent) in micrograms. A 0.1 mM Folin-Ciocateau reagent was prepared in methanol, and the food powder solution was added in the specified amounts. The antioxidants were allowed to react with 1 ml of DPPH reagent, and the absorbance (purple, 517 nm absorption) was monitored. The decline in 517 nm absorbance was noted and expressed as % quenching in comparison to a control without polyphenol. […] Each point at a concentration represents an individual sample of food powder prepared;
The powder was dissolved in water and the antioxidant capacity of the solution was determined by estimating the DPPH Radical scavenging capacity of solution as polyphenol equivalent (estmated by Folin-Ciocalteau reagent) in micrograms. A 0.1 mM Folin-Ciocateau reagent was prepared in methanol, and the food powder solution was added in the specified amounts. The antioxidants were allowed to react with 1 ml of DPPH reagent, and the absorbance (purple, 517 nm absorption) was monitored. The decline in 517 nm absorbance was noted and expressed as % quenching in comparison to a control without polyphenol. […] Each point at a concentration represents an individual sample of food powder prepared.
For data set [2], the system named is human colorectal cancer cells (HT 29). Here is the method:
(§1) Cell culture: Three cell lines derived from colon, CRL 1790, a normal cell line, HT 29, a colorectal cancer cell line and CRL 2158 a multidrug resistant colorectal cancer cell line (ATCC) were used to evaluate the cytotoxicity of nanocomplexes. Cells were cultured in media specifically recommended for each cell line. For HT 29, the medium used was DMEM (Dulbecco's modified Eagle's medium, Sigma), for CRL 2158, the medium used was RPMI, and for CRL 1790, the medium used was EMEM (Eagle's minimum essential medium; Cedarlane Labs, Burlington, ON, Canada). All the media were supplemented with FBS, Penicillin/streptomycin, and L-glutamine. At confluency (˜80%), cells were washed with 1×PBS twice. Cells were incubated with trypsin-EDTA for 5 minutes and then diluted in respective media supplemented with 10% FBS before staining with trypan blue (50 μl of cells and 450 μl of trypan blue) and counting viable cells to evaluate cytotoxicity. The cytotoxicity was determined by trypan blue exclusion by living cells and blue staining of dead cells. The number of dead cells in a unit area was counted and expressed as a percentage of total cells in the area.
(§2) Cytotoxicity of nanoparticles and nanofibres against cancer cells: These studies evaluate the cytotoxic effects of the purified nanoparticles and the nanofibres isolated from sour cherry using normal human colonic epithelial cells (CRL 1790), human colorectal cancer cells (HT 29) and multidrug resistant human colorectal cancer cells (CRL 2158) in the presence or absence of paclitaxel. Nanoparticles were added as polyphenol equivalent aliquots, while the nanofibres were added on a weight basis. […]

The test system of data set [3] is multidrug resistant human colorectal cancer cells (CRL 2158). As to the method:
as §1, §2

Data set [4] deals with normal human colonic epithelial cells (CRL 1790). As to the method: as §1, §2
The subject of data set [5] is Human colorectal MDR cancer Cells (CRL 2158). The following applies: B-Live/Dead cell analysis, paclitaxel 32 nM, 24 h, without or with nanofibre 4 μg/ml. As to the method: (§3) Live-Dead cell analysis: Cells were grown as confluent and subconfluent monolayers for 24 h as described previously (Hakimuddin et al., 2004). Cells were treated with paclitaxel, or paclitaxel along with nanofibers for 12 h (Appropriate amounts of paclitaxel and nanofibers were mixed in 5% DMSO in water, and added to the cells). Cells were washed with phosphate buffer and cell viability tests performed on CRL 1790, CRL 2158 and HT 29 cells using a live/dead cell viability kit (Invitrogen, Mississauga, Ontario) as described by the manufacturer. Live dead cells were visualized under a confocal microscope. The assay kit contains two fluorescent dyes, calcein AM ester (Ex 494 nm, Em 517 nm) which specifically enters live cells, gets de-esterified and stains the live cells green. The dying cells as well as dead cells are membrane compromised (leaky plasma membrane) and allows the entry of ethidium homodimer Ex 517 nm/Em 617), which stains the nucleus red.
(§4) Differentiating cytotoxicity by Live-Dead cell analysis: Further studies were performed to investigate delivery of paclitaxel using nanofibres into various cell lines. To further evaluate the efficiency of nanofibres in enhancing cytotoxicity of paclitaxel, live-dead cell analysis was conducted. Normal cells (CRL 1790), cancer cells (HT-29) and the MDR cells (CRL 2158) were cultured and exposed to paclitaxel alone, and paclitaxel along with nanofibres. The cells were cultured for 24 h at which time point, paclitaxel and the nanofibres were added to the culture. Live dead cell analysis was performed 24 h after exposure to the drug. […] The assay kit (Invitrogen) contains two fluorescent dyes, calcein AM ester (Ex 494 nm, Em 517 nm) which specifically enters live cells, gets de-esterified and stains the live cells green. The dying cells as well as dead cells are membrane compromised (leaky plasma membrane) and allows the entry of ethidium homodimer (Ex 517 nm/Em 617), which stains the nucleus red. […] Panels B, C represent control cells visualized at 617 nm (red, dead cells) and at 517 nm (green, live cells), respectively. Panel A is a composite image of untreated cells. Panels E, F represent the images of cells treated with paclitaxel (32 nM) recorded at the two wavelengths 617 and 517 nm respectively. Panel D is a composite image. Panels H and I show the cells treated with paclitaxel+nanofibres (32 nM+4 μg/ml nanofibers, the fibers and appropriate amount of paclitaxel were mixed in 5% DMSO and added to the culture medium of cells and allowed to incubate for 12 h). Panel G is a composite of the red and green images.

Data set [6] relates to Normal Human Intestinal Cells (CRL 1790). Conditions: B-Live/Dead cell analysis; paclitaxel 32 nM, 24 h, without or with nanofibre 4 μg/ml. As to the method:
as §3, §4

For data set [7], the system named is human colorectal cancer cells (HT 29). The following applies: B-Live/Dead cell analysis; paclitaxel 32 nM, 24 h, without or with nanofibre 4 μg/ml. Here is the method:
as §3, §4

In data set [8] the test system is HT 29 cells. Briefly: Uptake of calcein and calcein-loaded nanofibres, confocal microscopy. The data set is classed as cell-based, human. As to the method:
(§5) Calcein uptake into HT 29, CRL 1790 cells: Uptake of calcein-loaded nanoparticles into mammalian cells. Calcein by itself is impermeable through membrane, and may be taken up at a low level by endocytosis. Ethanol-bleached cherry was homogenized in water, also containing 1 mg/g fresh weight equivalent of calcein, and the supernatant dialyzed against water. Calcein complexed to nanofilaments is retained within the dialysis bag, and used for uptake measurements by confocal microscopy.
(§6) Uptake of complexed molecules by nanofibres: Nanofibres are extremely long (micrometers in length, ˜5 nm in diameter; see FIG. 37, for example), and their ability to cross the plasma membrane was investigated. In this experiment, the ability of nanofibres to form natural complexes with a membrane impermeable fluorescent dye, calcein, was investigated. Nanofibres where prepared from ethanol-bleached cherry by procedures described herein above. […] HT-29 and CRL-1790 cells were incubated in the presence of calcein alone, and calcein-complexed nanofibres (of equal fluorescence intensity). Uptake of calcein and calcein complexed with nanofibres were monitored by confocal microscopy. […] Similar experiments were also conducted with nanoparticles, however, because of quenching of fluorescence by polyphenols, successful acquisition of images was not achieved.

Data set [9] has as its system normal human intestinal CRL 1790 cells. The data set is described as above. Type of data set: cell-based. Here is the method: as §5, §6

Several values for one entry are separate records, joined by “and”; a condition that tells them apart may be missing. Identical values can stand only once. Entries after “also recorded” stand apart in the source; their conditions may differ. Like-named read-outs stand apart in the source and are kept apart here.

In the case of `Cc1c(C)c2c(c(C)c1O)CCC(C)(C(=O)O)O2` (stereo not shown) [Trolox], the TEAC value in data set [1] was 1.
With `CC(=O)O[C@H]1C(=O)[C@@]2(C)[C@H]([C@H](OC(=O)c3ccccc3)[C@]3(O)C[C@H](OC(=O)[C@H](O)[C@@H](NC(=O)c4ccccc4)c4ccccc4)C(C)=C1C3(C)C)[C@]1(OC(C)=O)CO[C@@H]1C[C@@H]2O` [Paclitaxel], the “% Living cells Colorectal Cancer Cell Line HT 29” value in data set [2] (Paclitaxel 2 nM) was 70.93%; in [2] (Paclitaxel 8 nM), 59.11%; in data set [2] (Paclitaxel 32 nM) it was 50% and 48.27%; in data set [7], 10.78%. Besides, the “% Living cells Colorectal MDR cell line CRL 2158” value in data set [3] (Paclitaxel 2 nM) is 90.86%; in data set [3] (Paclitaxel 8 nM), 86.17%; in data set [3] (Paclitaxel 32 nM), 83.76%; in data set [5], 46.00%; in data set [5] (listed as paclitaxel), about 50%. The “% Living cells Normal Cell Line CRL 1790” value in [4] (Paclitaxel 2 nM) is 86.66%; in data set [4] (Paclitaxel 8 nM) it was 74.28%; in [4] (Paclitaxel 32 nM), 66.79%; in data set [6], 97.6%.
Turning to `O=C(O)CN(CC(=O)O)Cc1cc2c(cc1O)Oc1cc(O)c(CN(CC(=O)O)CC(=O)O)cc1C21OC(=O)c2ccccc21` [Calcein], the “uptake into cells (in words)” value in data set [8] is “comparatively very low; also recorded: Far reduced uptake”; in data set [9], “comparatively very low”.

The values above are taken from patent US12180612B2, “Plant tissue-derived nanofibres” (priority 2018, dated 2024).
